Experimental findings from patent publication US8759520B2, “Compounds for treating cancer” (Boehringer Ingelheim International GmbH, priority 2008, dated 2014) are described below.

The structures appear in SMILES notation.

This assay deals with Bcl-2 (Homo sapiens, UniProt P10415). The experiment in a line: Homogeneous HTS assay for inhibitors of the Bcl-2 : Bak (72-87) BH3 domain interaction, fluorescence polarisation (2D-FIDA). Type of assay: binding. The conditions noted are these: fluorescence polarisation, fluorescent labelled Bak BH3 domain derived peptide; read-out: IC50 [μM] Bcl-2. Background: In fluorescence polarisation assays a small probe gives low polarisation when free and higher when bound to something large.
Sequence of Bcl-2 (P10415 whole entry, species assumed, the tested form may be a part): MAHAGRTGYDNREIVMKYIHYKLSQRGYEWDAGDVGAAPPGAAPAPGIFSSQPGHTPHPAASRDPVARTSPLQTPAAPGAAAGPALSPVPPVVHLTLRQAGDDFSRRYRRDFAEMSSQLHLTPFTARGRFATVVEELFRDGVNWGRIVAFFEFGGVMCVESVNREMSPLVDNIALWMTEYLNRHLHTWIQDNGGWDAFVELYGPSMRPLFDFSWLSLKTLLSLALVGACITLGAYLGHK

What is called IC50 is the concentration at which inhibition is half-maximal. For `CC1(C)CCC(c2ccc(Cl)cc2)=C(CN2CCN(c3ccc(Cn4c(=N)n(CCCOc5ccccc5)c5ccccc54)cc3)CC2)C1` [Compound 32, 1-(4-{4-[2-(4-Chloro-phenyl)-5,5-dimethyl-cyclohex-1-enylmethyl]-piperazin-1-yl}-benzyl)-3-(3-phenoxy-propyl)-1,3-dihydro-benzoimidazol-2-ylideneamine], the IC50 was below 10 µM. Take `CCCCCCn1c(=N)n(CC(O)COc2ccccc2OC)c2ccccc21` (stereo not shown) [Compound 101, 1-(3-Hexyl-2-imino-2,3-dihydro-benzoimidazol-1-yl)-3-(2-methoxy-phenoxy)-propan-2-ol]: the IC50 lay within 11 to 100 µM.

For `Cc1ccc(Cn2c(=N)n(CC(O)COc3ccccc3)c3ccccc32)cc1` (stereo not shown) [Compound 100, 1-[2-Imino-3-(4-methyl-benzyl)-2,3-dihydro-benzoimidazol-1-yl]-3-phenoxy-propan-2-ol], the IC50 fell in the range of 11 to 100 µM. With `N=c1n(CCCOc2ccc(F)cc2)c2cc(C(F)(F)F)ccc2n1Cc1ccc(Br)cc1` [Compound 60, 1-(4-Bromo-benzyl)-3-[3-(4-fluoro-phenoxy)-propyl]-5-trifluoromethyl-1,3-dihydro-benzoimidazol-2-ylideneamine] the figure was 11 to 100 µM; with `N=c1n(CCCOc2ccc(F)cc2)c2ccccc2n1Cc1ccc(N2CCN(Cc3ccccc3)CC2)cc1` [Compound 22, 1-[4-(4-Benzyl-piperazin-1-yl)-benzyl]-3-[3-(4-fluoro-phenoxy)-propyl]-1,3-dihydro-benzoimidazol-2-ylideneamine], below 10 µM; with `Cn1c(=N)n(Cc2ccc(N3CCN(Cc4ccccc4-c4ccccc4)CC3)cc2)c2ccccc21` [Compound 17, 1-[4-(4-Biphenyl-2-ylmethyl-piperazin-1-yl)-benzyl]-3-methyl-1,3-dihydro-benzoimidazol-2-ylideneamine], 11 to 100 µM. In the case of `N=c1n(CCCOc2ccc(F)cc2)c2ccccc2n1Cc1ccc(CN2CCN(c3ccccc3)CC2)cc1` [Compound 40, 1-[3-(4-Fluoro-phenoxy)-propyl]-3-[4-(4-phenyl-piperazin-1-ylmethyl)-benzyl]-1,3-dihydro-benzoimidazol-2-ylideneamine] it was 11 to 100 µM.

Take `N=c1n(CCCOc2ccc(F)cc2)c2ccccc2n1Cc1ccc(N2CCN(Cc3ccccc3Cl)CC2)cc1` [Compound 20, 1-{4-[4-(2-Chloro-benzyl)-piperazin-1-yl]-benzyl}-3-[3-(4-fluoro-phenoxy)-propyl]-1,3-dihydro-benzoimidazol-2-ylideneamine]: the concentration for half-maximal inhibition (IC50) was below 10 µM. With `COc1ccccc1OCCn1c(=N)n(Cc2ccccc2)c2ccccc21` [Compound 95, 1-Benzyl-3-[2-(2-methoxy-phenoxy)-ethyl]-1,3-dihydro-benzoimidazol-2-ylideneamine] the figure was 11 to 100 µM. Consider `N=c1n(CCCOc2ccc(F)cc2)c2ccccc2n1Cc1ccc(CN2CCN(c3ccccc3Cl)CC2)cc1` [Compound 44, 1-{4-[4-(2-Chloro-phenyl)-piperazin-1-ylmethyl]-benzyl}-3-[3-(4-fluoro-phenoxy)-propyl]-1,3-dihydro-benzoimidazol-2-ylideneamine], for which the IC50 fell in the range of 11 to 100 µM. With `N=c1n(Cc2ccccc2)c2ccccc2n1CC(O)COc1ccc([N+](=O)[O-])cc1` (stereo not shown) [Compound 81, 1-(3-Benzyl-2-imino-2,3-dihydro-benzoimidazol-1-yl)-3-(4-nitro-phenoxy)-propan-2-ol] the figure was 11 to 100 µM. For `N=c1n(CCCOc2ccc(F)cc2)c2ccccc2n1Cc1ccc(N2CCN(Cc3ccccc3-c3ccc(Cl)cc3)CC2)cc1` [Compound 24, 1-{4-[4-(4′-Chloro-biphenyl-2-ylmethyl)-piperazin-1-yl]-benzyl}-3-[3-(4-fluoro-phenoxy)-propyl]-1,3-dihydro-benzoimidazol-2-ylideneamine], the IC50 is below 10 µM.

Consider `N=c1n(CCSc2ccccc2)c2ccccc2n1Cc1ccc(Br)cc1` [Compound 7, 1-(4-Bromo-benzyl)-3-(2-phenylsulfanyl-ethyl)-1,3-dihydro-benzoimidazol-2-ylideneamine], for which the IC50 was in the range of 11 to 100 µM.
